Measurements published in patent US9078444B2, “Isothiazoline derivatives as insecticidal compounds” (Syngenta Participations AG, priority 2011, dated 2015).

What was measured:
Assay type in all cases: in vivo
[1] = system: Plutella xylostella; experiment: Plutella xylostella (diamond back moth) artificial diet test; details: 144 h, 200 ppm (concentration in well 18 ppm), L2 larvae, larval mortality and growth regulation after 6 days
Protocol: Plutella xylostella (Diamond Back Moth): 24-well microtiter plate (MTP) with artificial diet was treated with test solutions at an application rate of 200 ppm (concentration in well 18 ppm) by pipetting. After drying, the MTPs were infested with L2 larvae (7-12 per well). After an incubation period of 6 days, samples were checked for larval mortality and growth regulation.

[2] = system: Spodoptera littoralis; experiment: Spodoptera littoralis (Egyptian cotton leafworm) cotton leaf disc test; details: foliar, 72 h, 200 ppm sprayed on cotton leaf discs, mortality, feeding behavior, growth regulation 3 days after treatment
Protocol: Spodoptera littoralis (Egyptian Cotton Leafworm): Cotton leaf discs were placed on agar in a 24-well microtiter plate and sprayed with test solutions at an application rate of 200 ppm. After drying, the leaf discs were infested with […]. The samples were checked for mortality, feeding behavior, and growth regulation 3 days after treatment (DAT).

[3] = system: Tetranychus urticae; experiment: Tetranychus urticae (two-spotted spider mite) bean leaf disc test; details: foliar, 192 h, 200 ppm sprayed on bean leaf discs, mixed ages, egg, larval and adult mortality 8 days later
Source text: Tetranychus urticae (Two-Spotted Spider Mite): Bean leaf discs on agar in 24-well microtiter plates were sprayed with test solutions at an application rate of 200 ppm. After drying, the leaf discs are infested with mite populations of mixed ages. 8 days later, discs are checked for egg mortality, larval mortality, and adult mortality.

[4] = system: Thrips tabaci; experiment: Thrips tabaci (onion thrips) sunflower leaf disc test; details: foliar, 168 h, 200 ppm sprayed on sunflower leaf discs, mixed ages, mortality after 7 days
Protocol: Thrips tabaci (Onion Thrips): Sunflower leaf discs were placed on agar in a 24-well microtiter plate and sprayed with test solutions at an application rate of 200 ppm. After drying, the leaf discs were infested with a thrips population of mixed ages. After an incubation period of 7 days, samples were checked for mortality.

[5] = system: Heliothis virescens; experiment: Heliothis virescens (tobacco budworm) egg test on artificial diet; details: 96 h, 200 ppm (concentration in well 18 ppm), eggs on artificial diet, egg mortality, larval mortality, growth regulation after 4 days
Protocol: Heliothis virescens (Tobacco Budworm): Eggs (0-24 h old) were placed in 24-well microtiter plate on artificial diet and treated with test solutions at an application rate of 200 ppm (concentration in well 18 ppm) by pipetting. After an incubation period of 4 days, samples were checked for egg mortality, larval mortality, and growth regulation.

[6] = system: Diabrotica balteata; experiment: Diabrotica balteata (corn root worm) artificial diet test; details: 120 h, 200 ppm (concentration in well 18 ppm), L2 larvae, larval mortality and growth regulation after 5 days
Protocol: Diabrotica balteata (Corn Root Worm): A 24-well microtiter plate (MTP) with artificial diet was treated with test solutions at an application rate of 200 ppm (concentration in well 18 ppm) by pipetting. After drying, the MTPs were infested with L2 larvae (6-10 per well). After an incubation period of 5 days, samples were checked for larval mortality and growth regulation.

Measured: pest or weed control at 200 ppm

Cc1cc(C2=NSC(c3cc(Cl)c(Cl)c(Cl)c3)(C(F)(F)F)C2)ccc1C(=O)NC1CS(=O)(=O)C1 (stereo not drawn) [Compound D2, N-(1,1-dioxothietan-3-yl)-2-methyl-4-[5-(3,4,5-trichlorophenyl)-5-(trifluoromethyl)-4H-isothiazol-3-yl]benzamide]
≥ 80%: all assays above

Cc1cc(C2=NSC(c3cc(Cl)cc(Cl)c3)(C(F)(F)F)C2)ccc1C(=O)NCCC1OCCO1 (stereo not drawn) [Compound A54]
≥ 80%: all assays above

Cc1cc(C2=NSC(c3cc(Cl)cc(Cl)c3)(C(F)(F)F)C2)ccc1C(=O)NCCC(F)(F)F (stereo not drawn) [Compound A07]
≥ 80%: all assays above

Cc1cc(C2=NSC(c3cc(Cl)cc(Cl)c3)(C(F)(F)F)C2)ccc1C(=O)NCc1ccc(Cl)nc1 (stereo not drawn) [Compound A14]
≥ 80%: all assays above

C#CCNC(=O)c1ccc(C2=NSC(c3cc(Cl)cc(Cl)c3)(C(F)(F)F)C2)cc1C (stereo not drawn) [Compound A35]
≥ 80%: all assays above

CNC(=O)c1ccc(C2=NSC(c3cc(Cl)cc(Cl)c3)(C(F)(F)F)C2)cc1C (stereo not drawn) [Compound A62]
≥ 80%: all assays above

CCN1OC[C@@H](NC(=O)c2ccc(C3=NS[C@@](c4cc(Cl)cc(Cl)c4)(C(F)(F)F)C3)cc2C)C1=O [Compound A78, 4-[(5S)-5-(3,5-dichlorophenyl)-5-(trifluoromethyl)-4H-isothiazol-3-yl]-N-[(4R)-2-ethyl-3-oxo-isoxazolidin-4-yl]-2-methyl-benzamide]
≥ 80%: all assays above

Cc1cc(C2=NSC(c3cc(Cl)cc(Cl)c3)(C(F)(F)F)C2)ccc1C(=O)Nc1ccccc1F (stereo not drawn) [Compound A60]
≥ 80%: all assays above

Cc1cc(C2=NSC(c3cc(Cl)c(Cl)c(Cl)c3)(C(F)(F)F)C2)ccc1C(=O)NC1C[S+]([O-])C1 (stereo not drawn) [Compound D3, 2-methyl-N-(1-oxothietan-3-yl)-4-[5-(3,4,5-trichlorophenyl)-5-(trifluoromethyl)-4H-isothiazol-3-yl]benzamide]
≥ 80%: all assays above

Cc1cc(NC(=O)c2ccc(C3=NSC(c4cc(Cl)cc(Cl)c4)(C(F)(F)F)C3)cc2C)n(C)n1 (stereo not drawn) [Compound A17]
≥ 80%: all assays above

CCCNC(=O)c1ccc(C2=NSC(c3cc(Cl)cc(Cl)c3)(C(F)(F)F)C2)cc1C (stereo not drawn) [Compound A36]
≥ 80%: all assays above

Cc1cc(C2=NSC(c3cc(Cl)cc(Cl)c3)(C(F)(F)F)C2)ccc1C(=O)NCC1CCS1(=O)=O (stereo not drawn) [Compound A31]
≥ 80%: all assays above

Cc1cc(C2=NSC(c3cc(Cl)cc(Cl)c3)(C(F)(F)F)C2)ccc1C(=O)NCCF (stereo not drawn) [Compound A34]
≥ 80%: all assays above

Cc1cc(C2=NS[C@@](c3cc(Cl)cc(Cl)c3)(C(F)(F)F)C2)ccc1C(=O)N[C@@H]1CON(CC(F)(F)F)C1=O [Compound A79, 4-[(5S)-5-(3,5-dichlorophenyl)-5-(trifluoromethyl)-4H-isothiazol-3-yl]-2-methyl-N-[(4R)-3-oxo-2-(2,2,2-trifluoroethyl)isoxazolidin-4-yl]benzamide]
≥ 80%: all assays above

COCC(C)NC(=O)c1ccc(C2=NSC(c3cc(Cl)cc(Cl)c3)(C(F)(F)F)C2)cc1C (stereo not drawn) [Compound A06]
≥ 80%: all assays above

Cc1cc(C2=NSC(c3cc(Cl)cc(Cl)c3)(C(F)(F)F)C2)ccc1C(=O)NCc1ccccc1F (stereo not drawn) [Compound A11]
≥ 80%: all assays above

Cc1cc(C2=NSC(c3cc(Cl)cc(Cl)c3)(C(F)(F)F)C2)ccc1C(=O)NC(C)C (stereo not drawn) [Compound A39]
≥ 80%: all assays above

Cc1cc(C2=NSC(c3cc(Cl)cc(Cl)c3)(C(F)(F)F)C2)ccc1C(=O)NC1CCc2ccccc21 (stereo not drawn) [Compound A50]
≥ 80%: all assays above
